What all share (type): cell-based
Assay [1] has as its target T1, pERK1/2 (Thr202/Tyr204), PANC-1 (KRAS G121D) (Homo sapiens, UniProt P01116, G12D).
T1 construct: pERK1/2 HTRF read-out
The assay is described as follows: Assay of intracellular pERK1/2 (Thr202/Tyr204) phosphorylation in PANC-1 cells (KRAS G12D). Conditions: pERK1/2, 2 days, read-out: PANC-1 (KRAS G12D) IC50. The method in brief: (§1)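 HTRF detection of Thr202/Tyr204-phosphorylated ERK1/2 (665/615 nm ratio) in lysates from cells treated 2 days with serially 3-fold diluted compound.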

In assay [2] the target is T2, pERK1/2 (Thr202/Tyr204), NCI-1H441 (KRAS G12V) (Homo sapiens, UniProt P01116, G12V).
T2 construct: pERK1/2 HTRF read-out
T2 sequence (P01116 1-188 isoform P01116-2 G12V): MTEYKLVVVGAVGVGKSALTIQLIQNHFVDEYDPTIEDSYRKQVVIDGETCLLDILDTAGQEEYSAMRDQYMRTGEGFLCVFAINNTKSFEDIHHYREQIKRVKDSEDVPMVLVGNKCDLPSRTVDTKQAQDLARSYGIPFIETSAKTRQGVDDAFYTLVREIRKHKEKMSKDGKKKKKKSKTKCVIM
The assay is described as follows: Assay of intracellular pERK1/2 (Thr202/Tyr204) phosphorylation in NCI-H441 cells (KRAS G12V). Conditions: pERK1/2, 2 days, read-out: NCI-H441 (KRAS G12V) IC50. The method in brief:
as §1

In assay [3] the target is T3, pERK1/2 (Thr202/Tyr204), NCI-1H358 (KRAS G12C) (Homo sapiens, UniProt P01116, G12C).
T3 construct: pERK1/2 HTRF read-out
T3 sequence (P01116 1-188 isoform P01116-2 G12C): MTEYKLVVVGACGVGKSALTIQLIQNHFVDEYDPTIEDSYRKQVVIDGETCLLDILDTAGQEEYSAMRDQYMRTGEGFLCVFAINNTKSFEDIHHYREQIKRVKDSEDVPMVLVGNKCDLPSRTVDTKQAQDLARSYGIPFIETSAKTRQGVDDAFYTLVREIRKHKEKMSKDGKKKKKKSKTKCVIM
Nature of the assay: Assay of intracellular pERK1/2 (Thr202/Tyr204) phosphorylation in NCI-H358 cells (KRAS G12C). Conditions: pERK1/2, 2 days, read-out: NCI-H358 (KRAS G12C) IC50. The method in brief:
as §1

T1 sequence (P01116 1-188 isoform P01116-2 G12D): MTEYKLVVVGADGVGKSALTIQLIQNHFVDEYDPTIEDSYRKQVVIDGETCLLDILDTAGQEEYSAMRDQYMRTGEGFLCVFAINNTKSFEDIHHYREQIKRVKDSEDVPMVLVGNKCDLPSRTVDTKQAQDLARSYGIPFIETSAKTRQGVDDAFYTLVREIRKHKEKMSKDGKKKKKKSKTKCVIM

Take `Cc1c(F)c(N)cc(-c2nc3c4c(nc(OC[C@@]56CCCN5CC5(CC5(F)F)C6)nc4c2F)N(C(C)c2cccnc2N)CCO3)c1C(F)(F)F` (single isomer, unassigned) [Compound 228]: the half-maximal inhibitory concentration (IC50) in assay [1] worked out at 0.8 nM; in assay [2] it was 0.5 nM; in assay [3], 0.2 nM.
In the case of `Cc1c(F)c(N)cc(-c2nc3c4c(nc(OC[C@@]56CCCN5C[C@H](F)C6)nc4c2F)N(C(C)c2cccnc2N)C[C@@H](C)O3)c1C(F)(F)F` (single isomer, unassigned) [Compound 247, 3-((R or S)-1-((R)-5-(5-amino-4-fluoro-3-methyl-2-(trifluoromethyl)phenyl)-4-fluoro-2-(((2R,7aS)-2-fluorotetrahydro-1H-pyrrolizin-7a(5H)-yl)methoxy)-8-methyl-8,9-dihydro-10H-7-oxa-1,3,6,10-tetraazacyclohepta[de]naphthalen-10-yl)ethyl)pyridin-2-amine], the IC50 in assay [1], in assay [2] and in assay [3] was > 100 nM throughout.
In the case of `Cc1c(F)c(N)cc(-c2nc3c4c(nc(OC[C@@]56CCCN5C[C@H](F)C6)nc4c2F)N(C(C)c2cccnc2N)C[C@@H](C)O3)c1C(F)(F)F` (single isomer, unassigned) [Compound 248, 3-((R or S)-1-((R)-5-(5-amino-4-fluoro-3-methyl-2-(trifluoromethyl)phenyl)-4-fluoro-2-(((2R,7aS)-2-fluorotetrahydro-1H-pyrrolizin-7a(5H)-yl)methoxy)-8-methyl-8,9-dihydro-10H-7-oxa-1,3,6,10-tetraazacyclohepta[de]naphthalen-10-yl)ethyl)pyridin-2-amine], the IC50 in assay [1] turned out to be 8 nM; in assay [2] it was 1 nM; in assay [3], 0.4 nM.
In the case of `Cc1c(F)c(N)cc(-c2nc3c4c(nc(OC[C@@]56CCCN5C[C@H](F)C6)nc4c2F)N(C(C)c2cccnc2N)[C@@H](C)CO3)c1C(F)(F)F` (single isomer, unassigned) [Compound 250, 3-((R or S)-1-((S)-5-(5-amino-4-fluoro-3-methyl-2-(trifluoromethyl)phenyl)-4-fluoro-2-(((2R,7aS)-2-fluorotetrahydro-1H-pyrrolizin-7a(5H)-yl)methoxy)-9-methyl-8,9-dihydro-10H-7-oxa-1,3,6,10-tetraazacyclohepta[de]naphthalen-10-yl)ethyl)pyridin-2-amine], the IC50 in assay [1] came to 0.4 nM; in assay [2], 0.3 nM; in assay [3], 0.1 nM.
`Cc1ccc(C(C)N2CCOc3nc(-c4cc(N)c(F)c(C)c4C(F)(F)F)c(F)c4nc(OC[C@@]56CCCN5C[C@H](F)C6)nc2c34)c(N)n1` (single isomer, unassigned) [Compound 251, 3-((R or S)-1-(5-(5-amino-4-fluoro-3-methyl-2-(trifluoromethyl)phenyl)-4-fluoro-2-(((2R,7aS)-2-fluorotetrahydro-1H-pyrrolizin-7a(5H)-yl)methoxy)-8,9-dihydro-10H-7-oxa-1,3,6,10-tetraazacyclohepta[de]naphthalen-10-yl)ethyl)-6-methylpyridin-2-amine]: the IC50 in assay [1], in assay [2] and in assay [3] was > 100 nM in each case.
Turning to `Cc1c(F)c(N)cc(-c2nc3c4c(nc(OC[C@@]56CCCN5C[C@H](F)C6)nc4c2F)N(C(C)c2cccnc2N)C[C@H](C)O3)c1C(F)(F)F` (single isomer, unassigned) [Compound 253, 3-((R or S)-1-((S)-5-(5-amino-4-fluoro-3-methyl-2-(trifluoromethyl)phenyl)-4-fluoro-2-(((2R,7aS)-2-fluorotetrahydro-1H-pyrrolizin-7a(5H)-yl)methoxy)-8-methyl-8,9-dihydro-10H-7-oxa-1,3,6,10-tetraazacyclohepta[de]naphthalen-10-yl)ethyl)pyridin-2-amine], the IC50 in assay [1], in assay [2] and in assay [3] was > 100 nM each time.
For `Cc1c(F)c(N)cc(-c2nc3c4c(nc(OC[C@@]56CCCN5C[C@H](F)C6)nc4c2F)N(C(C)c2cccnc2N)C[C@H](C)O3)c1C(F)(F)F` (single isomer, unassigned) [Compound 254, 3-((R or S)-1-((S)-5-(5-amino-4-fluoro-3-methyl-2-(trifluoromethyl)phenyl)-4-fluoro-2-(((2R,7aS)-2-fluorotetrahydro-1H-pyrrolizin-7a(5H)-yl)methoxy)-8-methyl-8,9-dihydro-10H-7-oxa-1,3,6,10-tetraazacyclohepta[de]naphthalen-10-yl)ethyl)pyridin-2-amine], the IC50 is 43 nM in assay [1], 10 nM in assay [2] and 2 nM in assay [3].
In the same order, the values of `Cc1c(F)c(N)cc(-c2nc3c4c(nc(OC[C@@]56CCCN5C[C@H](F)C6)nc4c2F)N(C(C)c2cccnc2N)[C@H](C)CO3)c1C(F)(F)F` (single isomer, unassigned) [Compound 255, 3-((R or S)-1-((R)-5-(5-amino-4-fluoro-3-methyl-2-(trifluoromethyl)phenyl)-4-fluoro-2-(((2R,7aS)-2-fluorotetrahydro-1H-pyrrolizin-7a(5H)-yl)methoxy)-9-methyl-8,9-dihydro-10H-7-oxa-1,3,6,10-tetraazacyclohepta[de]naphthalen-10-yl)ethyl)pyridin-2-amine] are > 100 nM, > 100 nM and 37 nM.
The corresponding values for `Cc1c(F)c(N)cc(-c2nc3c4c(nc(OC[C@@]56CCCN5C[C@H](F)C6)nc4c2F)N(C(C)c2cccnc2N)[C@H](C)CO3)c1C(F)(F)F` (single isomer, unassigned) [Compound 256, 3-((R or S)-1-((R)-5-(5-amino-4-fluoro-3-methyl-2-(trifluoromethyl)phenyl)-4-fluoro-2-(((2R,7aS)-2-fluorotetrahydro-1H-pyrrolizin-7a(5H)-yl)methoxy)-9-methyl-8,9-dihydro-10H-7-oxa-1,3,6,10-tetraazacyclohepta[de]naphthalen-10-yl)ethyl)pyridin-2-amine] are > 100 nM, > 100 nM and > 100 nM.
In the case of `Cc1ccnc(N)c1C(C)N1CCOc2nc(-c3cc(N)c(F)c(C)c3C(F)(F)F)c(F)c3nc(OC[C@@]45CCCN4C[C@H](F)C5)nc1c23` (single isomer, unassigned) [Compound 257, 3-((R or S)-1-(5-(5-amino-4-fluoro-3-methyl-2-(trifluoromethyl)phenyl)-4-fluoro-2-(((2R,7aS)-2-fluorotetrahydro-1H-pyrrolizin-7a(5H)-yl)methoxy)-8,9-dihydro-10H-7-oxa-1,3,6,10-tetraazacyclohepta[de]naphthalen-10-yl)ethyl)-4-methylpyridin-2-amine], the IC50 in assay [1] is 51 nM; in assay [2] it was 6 nM; in assay [3] it was 2 nM.
On to `Cc1ccnc(N)c1C(C)N1CCOc2nc(-c3cc(N)c(F)c(C)c3C(F)(F)F)c(F)c3nc(OC[C@@]45CCCN4C[C@H](F)C5)nc1c23` (single isomer, unassigned) [Compound 258, 3-((R or S)-1-(5-(5-amino-4-fluoro-3-methyl-2-(trifluoromethyl)phenyl)-4-fluoro-2-(((2R,7aS)-2-fluorotetrahydro-1H-pyrrolizin-7a(5H)-yl)methoxy)-8,9-dihydro-10H-7-oxa-1,3,6,10-tetraazacyclohepta[de]naphthalen-10-yl)ethyl)-4-methylpyridin-2-amine], for which the IC50 in assay [1], in assay [2] and in assay [3] was > 100 nM in each case.
Turning to `Cc1c(F)c(N)cc(-c2nc3c4c(nc(OC[C@@]56CCCN5C[C@H](F)C6)nc4c2F)N([C@H](C)c2cn(C)nc2N)CCO3)c1C(F)(F)F` (single isomer, unassigned) [Compound 260, 4-((R or S)-1-(5-(5-amino-4-fluoro-3-methyl-2-(trifluoromethyl)phenyl)-4-fluoro-2-(((2R,7aS)-2-fluorotetrahydro-1H-pyrrolizin-7a(5H)-yl)methoxy)-8,9-dihydro-10H-7-oxa-1,3,6,10-tetraazacyclohepta[de]naphthalen-10-yl)ethyl)-1-methyl-1H-pyrazol-3-amine], the concentration for half-maximal inhibition (IC50) in assay [1] was > 100 nM; in assay [2], 65 nM; in assay [3], 30 nM.
In the same order, the values of `Cc1c(F)c(N)cc(-c2nc3c4c(nc(OC[C@@]56CCCN5C[C@H](F)C6)nc4c2F)N(C(C)c2cn(C)nc2N)CCO3)c1C(F)(F)F` (single isomer, unassigned) [Compound 261, 4-((R or S)-1-(5-(5-amino-4-fluoro-3-methyl-2-(trifluoromethyl)phenyl)-4-fluoro-2-(((2R,7aS)-2-fluorotetrahydro-1H-pyrrolizin-7a(5H)-yl)methoxy)-8,9-dihydro-10H-7-oxa-1,3,6,10-tetraazacyclohepta[de]naphthalen-10-yl)ethyl)-1-methyl-1H-pyrazol-3-amine] are > 100 nM, > 100 nM and > 100 nM.
The corresponding values for `Cc1c(F)c(N)cc(-c2nc3c4c(nc(OC[C@@]56CCCN5C[C@H](F)C6)nc4c2F)N(C(C)c2cccnc2N)[C@@H](C)CO3)c1C(F)(F)F` (single isomer, unassigned) [Compound 263, 3-((R or S)-1-((S)-5-(5-amino-4-fluoro-3-methyl-2-(trifluoromethyl)phenyl)-4-fluoro-2-(((2R,7aS)-2-fluorotetrahydro-1H-pyrrolizin-7a(5H)-yl)methoxy)-9-methyl-8,9-dihydro-10H-7-oxa-1,3,6,10-tetraazacyclohepta[de]naphthalen-10-yl)ethyl)pyridin-2-amine] are 35 nM, 40 nM and 14 nM.

These data come from US20260356851A1, “TRICYCLIC COMPOUNDS AND USES THEREOF” (HUTCHMED LIMITED, priority 2023, published 2026).
